# Measurements as given in patent US20240398784A1, “C-LINKED ISOQUINOLINE AMIDES AS LRRK2 INHIBITORS, PHARMACEUTICAL COMPOSITIONS, AND USES THEREOF” (Merck Sharp & Dohme LLC, priority 2021, published 2024).
# Target: LRRK2 G2019S (Homo sapiens, UniProt Q5S007, G2019S)
# Assay: LRRK2 G2019S Km ATP LanthaScreen assay
# Type: biochemical
# Conditions: read-out: LRRK2 pIC50 (converted)
# Sequence of LRRK2 G2019S (Q5S007 whole entry G2019S): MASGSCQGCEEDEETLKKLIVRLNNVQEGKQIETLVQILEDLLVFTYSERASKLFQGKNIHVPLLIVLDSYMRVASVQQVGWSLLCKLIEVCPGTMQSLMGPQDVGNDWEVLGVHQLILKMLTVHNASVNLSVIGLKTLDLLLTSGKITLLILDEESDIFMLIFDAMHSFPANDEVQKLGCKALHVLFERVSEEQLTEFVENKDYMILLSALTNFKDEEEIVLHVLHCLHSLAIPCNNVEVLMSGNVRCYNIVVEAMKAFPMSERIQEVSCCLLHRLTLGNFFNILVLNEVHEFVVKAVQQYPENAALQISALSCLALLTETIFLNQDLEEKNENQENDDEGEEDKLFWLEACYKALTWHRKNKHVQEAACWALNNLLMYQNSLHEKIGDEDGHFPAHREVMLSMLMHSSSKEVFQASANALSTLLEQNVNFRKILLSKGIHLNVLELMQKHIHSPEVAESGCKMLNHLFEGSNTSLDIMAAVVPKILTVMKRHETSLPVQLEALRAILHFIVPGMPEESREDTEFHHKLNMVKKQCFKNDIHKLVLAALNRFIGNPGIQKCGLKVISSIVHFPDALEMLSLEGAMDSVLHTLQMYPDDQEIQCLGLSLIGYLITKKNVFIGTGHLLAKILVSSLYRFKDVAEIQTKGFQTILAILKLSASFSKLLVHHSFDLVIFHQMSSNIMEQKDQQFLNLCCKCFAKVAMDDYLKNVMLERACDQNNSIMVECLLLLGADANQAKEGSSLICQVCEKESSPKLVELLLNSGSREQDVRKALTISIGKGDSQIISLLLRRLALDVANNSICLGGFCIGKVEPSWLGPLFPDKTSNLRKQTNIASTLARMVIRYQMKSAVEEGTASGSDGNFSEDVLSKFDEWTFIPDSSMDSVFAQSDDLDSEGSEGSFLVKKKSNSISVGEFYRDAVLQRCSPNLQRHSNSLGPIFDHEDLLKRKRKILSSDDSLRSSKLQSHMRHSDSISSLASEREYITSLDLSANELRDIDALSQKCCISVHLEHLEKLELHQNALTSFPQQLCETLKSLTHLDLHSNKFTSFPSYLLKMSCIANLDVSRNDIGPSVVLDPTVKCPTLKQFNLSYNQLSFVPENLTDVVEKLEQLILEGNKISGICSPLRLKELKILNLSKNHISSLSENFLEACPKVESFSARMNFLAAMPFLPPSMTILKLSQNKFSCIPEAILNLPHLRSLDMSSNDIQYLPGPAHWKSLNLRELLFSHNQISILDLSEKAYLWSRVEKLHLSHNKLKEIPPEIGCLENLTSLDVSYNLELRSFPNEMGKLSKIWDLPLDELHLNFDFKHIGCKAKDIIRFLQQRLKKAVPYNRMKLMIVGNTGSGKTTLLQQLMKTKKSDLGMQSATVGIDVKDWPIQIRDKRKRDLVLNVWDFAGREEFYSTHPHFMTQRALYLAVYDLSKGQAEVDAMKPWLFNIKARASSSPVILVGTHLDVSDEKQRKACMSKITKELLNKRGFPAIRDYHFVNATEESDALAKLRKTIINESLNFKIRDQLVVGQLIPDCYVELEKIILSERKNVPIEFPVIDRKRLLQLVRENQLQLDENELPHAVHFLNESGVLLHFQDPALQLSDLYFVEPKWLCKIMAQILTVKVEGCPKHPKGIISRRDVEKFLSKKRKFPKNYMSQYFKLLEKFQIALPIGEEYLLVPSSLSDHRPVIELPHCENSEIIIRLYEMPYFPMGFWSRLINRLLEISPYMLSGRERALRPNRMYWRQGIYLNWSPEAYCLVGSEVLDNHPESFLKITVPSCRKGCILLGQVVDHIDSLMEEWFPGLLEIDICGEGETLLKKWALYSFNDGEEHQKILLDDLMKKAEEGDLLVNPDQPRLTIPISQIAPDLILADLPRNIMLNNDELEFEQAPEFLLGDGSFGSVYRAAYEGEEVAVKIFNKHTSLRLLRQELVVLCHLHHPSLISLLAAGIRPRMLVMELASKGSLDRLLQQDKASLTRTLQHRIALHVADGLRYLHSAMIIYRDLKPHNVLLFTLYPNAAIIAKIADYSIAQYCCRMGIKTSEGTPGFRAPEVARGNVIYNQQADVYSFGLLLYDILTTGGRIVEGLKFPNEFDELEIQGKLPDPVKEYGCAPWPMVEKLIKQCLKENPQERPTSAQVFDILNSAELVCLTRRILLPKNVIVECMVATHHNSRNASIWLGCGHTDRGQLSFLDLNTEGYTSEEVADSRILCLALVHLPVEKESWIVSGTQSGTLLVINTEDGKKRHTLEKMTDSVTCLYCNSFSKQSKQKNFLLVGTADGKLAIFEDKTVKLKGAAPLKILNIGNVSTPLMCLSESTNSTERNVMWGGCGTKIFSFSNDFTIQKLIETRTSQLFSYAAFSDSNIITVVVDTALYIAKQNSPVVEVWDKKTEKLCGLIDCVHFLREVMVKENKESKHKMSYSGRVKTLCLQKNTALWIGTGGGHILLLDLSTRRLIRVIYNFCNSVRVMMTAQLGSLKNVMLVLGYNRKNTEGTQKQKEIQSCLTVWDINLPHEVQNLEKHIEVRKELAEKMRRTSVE
row,Structure (SMILES),IC50 [nM]
1,CC(C)OC1CCC(C(=O)Nc2cc3cc(C4CCN(C5(C)COCC5O)CC4)c(Cl)cc3cn2)CO1 (stereo not drawn) [Ex-2.27],0.324
2,"CC1(N2CCC(c3cc4cc(NC(=O)c5cnn(C6CC6)c5Cl)ncc4cc3Cl)CC2)COCC1O (single isomer, unassigned) [Ex-1.50, 5-chloro-N-(7-chloro-6-(1-((3R,4R or 3S,4S)-4-hydroxy-3-methyltetrahydrofuran-3-yl)piperidin-4-yl)isoquinolin-3-yl)-1-cyclopropyl-1H-pyrazole-4-carboxamide]",0.0813
3,CC(C)(O)C1CC1C(=O)Nc1cc2cc(C3CCN(C4(C)CCOC4)CC3)c(Cl)cc2cn1 (stereo not drawn) [Ex-2.24],0.257
4,Cc1cc2cnc(NC(=O)C3CCOC(C)(C)C3)cc2cc1C1CCN(C2(C)COCC2O)CC1 (stereo not drawn) [Ex-2.49],0.513
5,"Cc1nn(C)cc1CC(=O)Nc1cc2cc(C3CCN(C4(C)COCC4O)CC3)c(Cl)cc2cn1 (single isomer, unassigned) [Ex-1.40, N-(7-chloro-6-(1-((3R,4R or 3S,4S)-4-hydroxy-3-methyltetrahydrofuran-3-yl)piperidin-4-yl)isoquinolin-3-yl)-2-(1,3-dimethyl-1H-pyrazol-4-yl)acetamide]",0.112
6,Cn1ncc(C2CC2C(=O)Nc2cc3cc(C4(C#N)CC45CC5)ccc3cn2)c1Cl (stereo not drawn) [Ex-2.79],34.7
7,N#CC1(c2ccc3cnc(NC(=O)C4CCN(CC(F)(F)F)C4)cc3c2)CC12CC2 (stereo not drawn) [Ex-2.43],31.6
8,"CC1(N2CCC(c3cc4cc(NC(=O)C5CC5c5ccncc5)ncc4cc3Cl)CC2)COCC1O (single isomer, unassigned) [Ex-4.21, N-(7-chloro-6-(1-(4-hydroxy-3-methyltetrahydrofuran-3-yl)piperidin-4-yl)isoquinolin-3-yl)-2-(pyridin-4-yl)cyclopropane-1-carboxamide]",0.0813
9,"CCOC1CC2(C1)CC2C(=O)Nc1cc2cc(C3CCN(C4(C)COCC4O)CC3)c(Cl)cc2cn1 (single isomer, unassigned) [Ex-4.29, N-(7-chloro-6-(1-(4-hydroxy-3-methyltetrahydrofuran-3-yl)piperidin-4-yl)isoquinolin-3-yl)-5-ethoxyspiro[2.3]hexane-1-carboxamide]",7.94
10,"O=C(Nc1cc2cc(C3CCN(C4COC4)CC3)c(Cl)cc2cn1)C1CC(OC(F)F)C1 (single isomer, unassigned) [Ex-2.3]",5.62
11,"CC1(N2CCC(c3cc4cc(NC(=O)C5CC5C5CCCO5)ncc4cc3Cl)CC2)COCC1O (single isomer, unassigned) [Ex-4.69, N-(7-chloro-6-(1-(4-hydroxy-3-methyltetrahydrofuran-3-yl)piperidin-4-yl)isoquinolin-3-yl)-2-(tetrahydrofuran-2-yl)cyclopropane-1-carboxamide]",0.0813
12,N#CC1(c2ccc3cnc(NC(=O)C4CC45CCOC5)cc3c2)CC12CC2 (stereo not drawn) [Ex-2.65],25.7
13,CC1(N2CCC(c3cc4cc(NC(=O)C5CCCOC5)ncc4cc3Cl)CC2)COCC1O (stereo not drawn) [Ex-2.25],0.0813
14,N#CC1(c2ccc3cnc(NC(=O)C4CC4c4ccncc4)cc3c2)CC12CC2 (stereo not drawn) [Ex-2.41],1.86
15,"CC1(N2CCC(c3cc4cc(NC(=O)C5CC5c5cccs5)ncc4cc3Cl)CC2)COCC1O (single isomer, unassigned) [Ex-4.60, N-(7-chloro-6-(1-(4-hydroxy-3-methyltetrahydrofuran-3-yl)piperidin-4-yl)isoquinolin-3-yl)-2-(thiophen-2-yl)cyclopropane-1-carboxamide]",0.0813
16,CC1(N2CCC(c3cc4cc(NC(=O)C5CCC(C(F)(F)F)OC5)ncc4cc3Cl)CC2)COCC1O (stereo not drawn) [Ex-2.59],5.13
17,"CC1(N2CCC(c3cc4cc(NC(=O)c5cnn(C67CC(C6)C7)c5)ncc4cc3Cl)CC2)COCC1O (single isomer, unassigned) [Ex-1.52, 1-(bicyclo[1.1.1]pentan-1-yl)-N-(7-chloro-6-(1-((3R,4R or 3S,4S)-4-hydroxy-3-methyltetrahydrofuran-3-yl)piperidin-4-yl)isoquinolin-3-yl)-1H-pyrazole-4-carboxamide]",1.62
18,"CC1(N2CCC(c3cc4cc(NC(=O)[C@@H]5CCCCO5)ncc4cc3Cl)CC2)COCC1O (single isomer, unassigned) [Ex-1.17, (S)-N-(7-chloro-6-(1-((3R,4R or 3S,4S)-4-hydroxy-3-methyltetrahydrofuran-3-yl)piperidin-4-yl)isoquinolin-3-yl)tetrahydro-2H-pyran-2-carboxamide]",0.178
19,CC1(C)CC1C(=O)Nc1cc2cc(C3CCN(C4(C)COCC4O)CC3)c(Cl)cc2cn1 (stereo not drawn) [Ex-2.11],2
20,"COC1CC(C(=O)Nc2cc3cc(C4(C#N)CC45CC5)ccc3cn2)C1 (single isomer, unassigned) [Ex-1.4, (1R,3R or 1S,3S)-N-(6-((R or S)-1-cyanospiro[2.2]pentan-1-yl)isoquinolin-3-yl)-3-methoxycyclobutane-1-carboxamide]",3.63
21,"CC1(N2CCC(c3cc4cc(NC(=O)C5CC5C5CCCCO5)ncc4cc3Cl)CC2)COCC1O (single isomer, unassigned) [Ex-4.71, N-(7-chloro-6-(1-(4-hydroxy-3-methyltetrahydrofuran-3-yl)piperidin-4-yl)isoquinolin-3-yl)-2-(tetrahydro-2H-pyran-2-yl)cyclopropane-1-carboxamide]",0.0813
22,"O=C(Nc1cc2cc(C3CCC(N4CC(F)C4)CC3)c(Cl)cc2cn1)C1CC1c1ccccn1 (single isomer, unassigned) [Ex-5.1, (1R,2R or 1S,2S)-N-(7-chloro-6-((cis or trans)-4-(3-fluoroazetidin-1-yl)cyclohexyl)isoquinolin-3-yl)-2-(pyridin-2-yl)cyclopropane-1-carboxamide]",52.5
23,CCC1C(C(=O)Nc2cc3cc(C4CCN(C5(C)COCC5F)CC4)c(Cl)cc3cn2)C1c1ccn(C)n1 (stereo not drawn) [Ex-2.86],0.0813

# Other lines, results leading:
row,IC50 [nM],Structure (SMILES)
1,0.0813,"CC1(N2CCC(c3cc4cc(NC(=O)C5CC5c5ccccn5)ncc4cc3F)CC2)COCC1O (single isomer, unassigned) [Ex-8.4, N-(7-fluoro-6-(1-(4-hydroxy-3-methyltetrahydrofuran-3-yl)piperidin-4-yl)isoquinolin-3-yl)-2-(pyridin-2-yl)cyclopropane-1-carboxamide]"
2,1.45,"Cn1cc(C2CC2C(=O)Nc2cc3cc(C4CCN(C5(C)COCC5F)CC4)c(Cl)cc3cn2)cn1 (single isomer, unassigned) [Ex-6.30, N-(7-chloro-6-(1-(4-fluoro-3-methyltetrahydrofuran-3-yl)piperidin-4-yl)isoquinolin-3-yl)-2-(1-methyl-1H-pyrazol-4-yl)cyclopropane-1-carboxamide]"
3,47.9,"O=C(Nc1cc2cc(C3CCC(N4CC(F)(F)C4)CC3)c(Cl)cc2cn1)C1CC1c1ccccn1 (single isomer, unassigned) [Ex-5.4, N-(7-chloro-6-(4-(3,3-difluoroazetidin-1-yl)cyclohexyl)isoquinolin-3-yl)-2-(pyridin-2-yl)cyclopropane-1-carboxamide]"
4,1.1,"CC1CC1C(=O)Nc1cc2cc(C3CCN(C4COC4)CC3)c(Cl)cc2cn1 (single isomer, unassigned) [Ex-9.5, N-(7-chloro-6-(1-(oxetan-3-yl)piperidin-4-yl)isoquinolin-3-yl)-2-methylcyclopropane-1-carboxamide]"
5,0.0813,"CC1(C)CC(C(=O)Nc2cc3cc(C4CCN(C5(C)COCC5F)CC4)c(Cl)cc3cn2)CCO1 (single isomer, unassigned) [Ex-6.36, N-(7-chloro-6-(1-(4-fluoro-3-methyltetrahydrofuran-3-yl)piperidin-4-yl)isoquinolin-3-yl)-2,2-dimethyltetrahydro-2H-pyran-4-carboxamide]"
6,1.62,"N#CC1(c2ccc3cnc(NC(=O)C4CC45CCOCC5)cc3c2)CC12CC2 (single isomer, unassigned) [Ex-18.12, (R or S)-N-(6-((R or S)-1-cyanospiro[2.2]pentan-1-yl)isoquinolin-3-yl)-6-oxaspiro[2.5]octane-1-carboxamide]"
7,1.2,"CC1(C)CC(C(=O)Nc2cc3cc(C4CCN(C5(C)CCOC5)CC4)c(Cl)cc3cn2)CCO1 (single isomer, unassigned) [Ex-6.46, N-(7-chloro-6-(1-(3-methyltetrahydrofuran-3-yl)piperidin-4-yl)isoquinolin-3-yl)-2,2-dimethyltetrahydro-2H-pyran-4-carboxamide]"
8,2.34,"CC1(C)CCC(C(=O)Nc2cc3cc(C4CCC(N5CCC(F)C5)CC4)c(Cl)cc3cn2)CO1 (single isomer, unassigned) [Ex-5.19, N-(7-chloro-6-(4-(3-fluoropyrrolidin-1-yl)cyclohexyl)isoquinolin-3-yl)-6,6-dimethyltetrahydro-2H-pyran-3-carboxamide]"
9,3.8,"O=C(Nc1cc2cc(C3CCC(N4CC(F)C4)CC3)c(Cl)cc2cn1)C1CC12CCOCC2 (single isomer, unassigned) [Ex-11.6, N-(7-chloro-6-(4-(3-fluoroazetidin-1-yl)cyclohexyl)isoquinolin-3-yl)-6-oxaspiro[2.5]octane-1-carboxamide]"
10,0.427,"CCC1C(C(=O)Nc2cc3cc(C(C)CC#N)c(Cl)cc3cn2)C1c1cnn(C)c1 (single isomer, unassigned) [Ex-9.15, N-(7-chloro-6-(1-cyanopropan-2-yl)isoquinolin-3-yl)-2-ethyl-3-(1-methyl-1H-pyrazol-4-yl)cyclopropane-1-carboxamide]"
11,2.14,"CC1(C)CC(C(=O)Nc2cc3cc(C4CCN(C5(C)CCOC5)CC4)c(Cl)cc3cn2)CCO1 (single isomer, unassigned) [Ex-6.45, N-(7-chloro-6-(1-(3-methyltetrahydrofuran-3-yl)piperidin-4-yl)isoquinolin-3-yl)-2,2-dimethyltetrahydro-2H-pyran-4-carboxamide]"
12,0.214,"CC1(N2CCC(c3cc4cc(NC(=O)C5CC56CCOCC6)ncc4cc3Cl)CC2)COC(C2CC2)C1 (single isomer, unassigned) [Ex-6.16, N-(7-chloro-6-(1-(5-cyclopropyl-3-methyltetrahydrofuran-3-yl)piperidin-4-yl)isoquinolin-3-yl)-6-oxaspiro[2.5]octane-1-carboxamide]"
13,0.0813,"Cc1cc2cnc(NC(=O)C3CC3c3ccn(C)n3)cc2cc1C1CCN(C2(C)COCC2F)CC1 (single isomer, unassigned) [Ex-16.1]"
